In patent US20150342961A1, “USE OF PROSTAGLANDIN E1 (PGE1) AND MISOPROSTOL FOR TREATING CHRONIC MYELOGENOUS/MYELOID LEUKEMIA (CML)” (priority 2014, published 2015):
“Also recorded” adds a separate entry of the source. Where a name gives a salt, the structure may show the parent alone.

How the values were obtained:
CML = assay: Screen of drugs simulating Tcf1 and Lef1 elimination, effect on CML
From the text: (§1) In view of the Inventor's discovery, the Inventor set out to screen for drugs that would simulate the effect of eliminating Tcf1 and Lef1 for use in treatment of CML. Inventor experimented with the following drugs which are known to at least partly simulate the effect of eliminating Tcf1 and Lef1: Carbimazole, Cinchonine, Gibberellic acid, Hippeastrine hydrobromide, Dimaprit dihydrochloride, Spaglumic acid, and Vigabatrin. […] Inventor further experimented with Trichostatin A and Vorinostat. […] Inventor thereafter turned to prostaglandins for treating CML.

CML mouse model = assay: CML mouse model, survival of primary recipients after BMT; assay type: in vivo; settings: for survival rate at about day 35 / time mice survived after bone marrow transplantation (BMT) before survival declined: 2.5 mg/kg daily, days 8-36 post-BMT
Procedure: Bone marrow cells (BM) were isolated from donor mice, and HSCs were enriched and delivered the BCR-ABL gene using retroviral transduction. The BM cells were then transplanted into another group of recipient mice (called primary recipients here). The recipients will develop CML because the donor HSCs are transformed by BCR-ABL. On day 8 after BM transplantation (BMT), the primary recipients were treated with DMSO (the solvent to dissolve PGE1 or PGE2), PGE1, PGE2, Imatinib or both PGE1 and Imatinib. The survival of the recipients was monitored.
CML was established as in FIG. 5. During days 8-36 post-bone marrow transplantation (BMT), the recipients were treated daily with 2.5 mg/kg body weight PGE1 or PGE2, or the vehicle DMSO. Statistical significance was determined by log-rank test. Data are pooled results from 2 independent experiments with a total of 10 CML recipients tested under each condition.
CML was established as in FIG. 5. During days 8-80 post-BMT, the recipients were treated daily with Imatinib alone (100 mg/kg body weight, b.i.d.) or in combination with PGE1 (2.5 mg/kg body weight). Statistical significance was determined by log-rank test. Data are pooled results from 2 independent experiments with a total of 9-10 CML recipients tested under each condition.
(§2) CML animals were treated with the solvent dimethyl sulfoxide (DMSO) as a negative control (See FIG. 6).

LSCs [1] = assay: LSCs from treated primary recipients transplanted into secondary recipients, propagation of CML; assay type: in vivo, mouse; settings: secondary recipients untreated
Procedure: The CML model was established in the primary recipients as in FIG. 5. The recipients were then treated with Imatinib, PGE1 or Misoprostol alone, or in combination during days 8-21 post-BMT. The LSCs were isolated from the BM of the primary recipients and transplanted into another set of secondary recipients. The ability of LSCs to propagate CML in the secondary recipients were tracked.
Note that the LSCs were only treated with PGE1 or Misoprostol in the primary recipients for 2 weeks, and none of the secondary recipients were treated.
as §2

LSCs [2] = assay: Screen of drugs simulating Tcf1 and Lef1 elimination, effect on LSCs
From the text: as §1

HSCs = system: HSCs
From the text: as §1

For `CCOC(=O)n1ccn(C)c1=S` [Carbimazole], the “effect on CML” value (CML) was “no effect on CML”.
For `C=C[C@H]1C[N@@]2CC[C@H]1C[C@@H]2[C@@H](O)c1ccnc2ccccc12` [Cinchonine], the “effect on CML” value (CML) was “no effect on CML”.
For `CN(C)CCCSC(=N)N` [Dimaprit dihydrochloride], the “effect on CML” value (CML) was “no effect on CML”.
In the case of `C=C1C[C@]23C[C@@]1(O)CC[C@H]2[C@@]12C=C[C@H](O)[C@@](C)(C(=O)O1)[C@H]2[C@@H]3C(=O)O` [Gibberellic acid], the “effect on CML” value (CML) is reported as “no effect on CML”.
`CN1CCC2=C[C@H](O)[C@H]3OC(=O)c4cc5c(cc4[C@H]3[C@@H]21)OCO5` [Hippeastrine hydrobromide] was tested, and the “effect on CML” value (CML) was “no effect on CML”.
In the case of `Cc1ccc(NC(=O)c2ccc(CN3CCN(C)CC3)cc2)cc1Nc1nccc(-c2cccnc2)n1` [Imatinib], the “effect of Imatinib or co-therapy on survival of CML recipients” value (CML mouse model; Imatinib 100 mg/kg b.i.d. alone or with PGE1 2.5 mg/kg, days 8-80 post-BMT) is reported as “substantially extend the survival; also recorded: extended the survival of CML mice”, the “day after BMT at which all CML mice had died” value (CML mouse model; Imatinib 100 mg/kg b.i.d., days 8-80 post-BMT) is reported as ~62 days and the “day after secondary BMT at which secondary recipients died” value (LSCs [1]; LSCs treated in primary recipients days 8-21 post-BMT) is reported as ~40 days.
With `CCCCC[C@H](O)/C=C/[C@H]1[C@H](O)CC(=O)[C@@H]1CCCCCCC(=O)O` [PGE1, Prostaglandin E1] the “survival rate at about day 35” value (CML mouse model; CML mice) was ~50%, the “time mice survived after bone marrow transplantation (BMT) before survival declined” value (CML mouse model; CML mice) was “approximately 17 days” and the “greater survival rate compared to the PGE2 mice” value (CML mouse model; CML mice, about day 35) was ~400%. The “ability of treated LSCs to propagate CML in secondary recipients” value (LSCs [1]; two-week treatment in primary recipients) was “superior to Imatinib treatment; also recorded: much less efficient in propagating CML”.
For `CCCCC[C@H](O)/C=C/[C@H]1[C@H](O)CC(=O)[C@@H]1C/C=C\CCCC(=O)O` [PGE2, Prostaglandin E2], the “survival rate at about day 35” value (CML mouse model; CML mice) was “about 10%” and the “time mice survived after bone marrow transplantation (BMT) before survival declined” value (CML mouse model; CML mice) was “approximately 17 days”.
With `CC(/C=C/C(=O)NO)=C\[C@@H](C)C(=O)c1ccc(N(C)C)cc1` [Trichostatin A] the “effect on LSCs” value (LSCs [2]) was “strong effect on LSCs”.
With `C=CC(N)CCC(=O)O` (stereo not drawn) [Vigabatrin] the “effect on CML” value (CML) was “no effect on CML”.
With `O=C(CCCCCCC(=O)Nc1ccccc1)NO` [Vorinostat] the “toxicity to HSCs” value (HSCs) was “toxic to HSCs” and the “effect on LSCs” value (LSCs [2]) was “strong effect on LSCs”.
